Measured values taken from patent US11911469B2, “Combination of ACAT1 inhibitor and checkpoint antibody for treating cancer” (Shanghai Institutes for Biological Sciences, Chinese …, priority 2016, dated 2024).

How the values were obtained:
[1] = doses at least up to 750 mg four times daily (i.e., 3000 mg/day); cited from earlier work
OT-I CTLs = experiment: Cytotoxicity of OT-I CTLs against antigen-pulsed EL-4 cells (LDH assay); assay type: cell-based, mouse; details: for cytotoxicity of CD8+ T cells: OT-I CTLs pretreated with compound or vehicle
Description: To generate mature Cytotoxic T lymphocytes (CTLs), splenocytes isolated from Acat1^CKO-OT-I mice or WT OT-I mice were stimulated with OVA257-264 (N4) for 3 days in the presence of 10 ng/ml IL-2. Cells were centrifuged and cultured in fresh medium containing 10 ng/ml IL-2 for 2 more days, after which most of the cells in the culture were CTLs. To measure CD8^+ T-cell cytotoxicity, EL-4 cells were pulsed with 2 nM antigenic peptide (N4, A2, T4, G4, R4 or Catnb) for 30 minutes. After washing EL-4 cells and CTLs three times with PBS, we mixed CTLs and antigen-pulsed EL-4 cells (1×10^5) in the killing medium (phenol free-RPMI 1640, 2% FBS), at the ratio of 1:1, 1:2 and 1:5, respectively. After 4 hours, the cytotoxic efficiency was measured by quantifying the release of endogenous lactate dehydrogenase (LDH) from EL-4 cells using a CytoTox 96 Non-Radioactive Cytotoxicity kit (Promega).
(§1) CD8^+ T cells were pretreated with vehicle (dimethylsulfoxide, DMSO), CP-113,818 or K604. Then the cells were stimulated with 5 μg ml^−1 plate-bound anti-CD3/CD28, and cytokine and cytolytic granule production was studied. Cytotoxicity of OT-I CTLs pretreated with CP-113,818 or K604 or vehicle was also studied.
(§2) To study ACAT1 inhibitors in cancer immunotherapies in mice, melanoma-bearing mice were treated with a potent ACAT-1 inhibitor, avasimibe (Ava), or DMSO control, and tumour size and survival were studied. A combined therapy (avasimibe and anti-PD-1) or monotherapies (avasimibe or anti-PD-1) were also studied and compared in treating melanoma. In a lung cancer model, Lewis lung carcinoma-bearing mice were treated with avasimibe or DMSO control, and tumour multiplicity and survival were studied. Cytokine productions of stimulated human (h) CD8^+ T cells pretreated with avasimibe, CP-113,818, or DMSO. CTL cytotoxicity after avasimibe treatment was measured by the LDH assay. OT-I CTLs were pretreated with avasimibe or vehicle for 6 h and then incubated with EL-4 cells pulsed with OVA257-264 peptide for 4 h.

[2] = test system: Lewis lung carcinoma (LLC); experiment: Lewis lung carcinoma (LLC) model, avasimibe therapy; assay type: in vivo, mice; details: avasimibe 15 mg/kg intraperitoneally every 3 days, Day 10 to Day 35; versus DMSO control
Description: The LLC cells were washed twice with PBS and filtered by a 40 μm strainer. After which, the LLC cells (2×10^6) were intravenously injected into WT or Acat1^CKO mice at the age of 8-10 weeks. To detect the tumour multiplicity in the lung, the mice were euthanized at Day 35 post tumour inoculation and tumour numbers in the lung were counted. In the avasimibe therapy, on Day 10 mice were randomly divided into two groups. From Day 10 to Day 35 post tumour inoculation, avasimibe was injected intraperitoneally to the mice at the dose of 15 mg/kg every 3 days.
as §2

human CD8+ T cells = experiment: Human CD8+ T-cell cytokine production; assay type: cell-based; details: PBMCs pretreated 12 hours, stimulated with plate-bound α-CD3 and α-CD28 (5 μg/ml each) for 24 hours; versus DMSO
Description: Human peripheral blood mononuclear cells (PBMCs) from healthy donators were stimulated with 5 μg/ml PHA (Sigma) for 2 days and then rested for 1 day. Cells were pretreated with vehicle (DMSO), CP113, 818 or avasimibe for 12 hours and then stimulated with plate-bound α-CD3 (5 μg/ml) and α-CD28 (5 μg/ml) antibodies for 24 hours. Intracellular staining and flow cytometry were used to assess cytokines production of CD8^+ T cells. […] A combined therapy (avasimibe and anti-PD-1) or monotherapies (avasimibe or anti-PD-1) were also studied and compared in treating melanoma. In a lung cancer model, Lewis lung carcinoma-bearing mice were treated with avasimibe or DMSO control, and tumour multiplicity and survival were studied. […] CTL cytotoxicity after avasimibe treatment was measured by the LDH assay. OT-I CTLs were pretreated with avasimibe or vehicle for 6 h and then incubated with EL-4 cells pulsed with OVA257-264 peptide for 4 h.

B16F10 cells = experiment: Skin melanoma mouse model, avasimibe therapy; assay type: in vivo; details: melanoma-bearing mice; avasimibe 15 mg/kg intraperitoneally every 2 days from Day 10; versus DMSO control
Description: B16F10 cells were washed three times with PBS, filtered by a 40 μm strainer. […] From Day 10, tumour size was measured every 2 days, and animal survival rate was recorded every day. Tumour size was calculated as length×width. Mice with tumour size larger than 20 mm at the longest axis were euthanized for ethical consideration. To analyse effector function of tumour-infiltrating T cells, mice were euthanized on Day 16. In the avasimibe therapy, on Day 10 mice bearing tumour of similar size were randomly divided into two groups. From Day 10, avasimibe was injected intraperitoneally to the mice at the dose of 15 mg/kg every 2 days.
as §2, with “OT-I CTLs were pretreated with avasimibe or vehicle for 6 h and then incubated with EL-4 cells pulsed with OVA257-264 peptide for 4 h.” left out

CD8+ T cells = experiment: Cytokine and cytolytic granule production of stimulated CD8+ T cells; assay type: cell-based, mouse; details: pretreated cells stimulated with 5 μg ml−1 plate-bound anti-CD3/CD28; versus vehicle (DMSO)
Description: Peripheral T cells were isolated from mouse spleen and draining lymph nodes by a CD8^+ or CD4^+ T cell negative selection kit (Stem cell). To analyse the tumour-infiltrating T cells, tumours were first digested by collagenase IV (sigma), and tumour-infiltrating leukocytes were isolated by 40-70% percoll (GE) gradient centrifugation. To measure the effector function of CD8^+ T cells, the isolated cells were first stimulated with 1 μM ionomycin and 50 ng/ml PMA for 4 hours in the presence of 5 μg/ml BFA, and then stained with PERCP-α-CD8a. Next, cells were fixed with 4% PFA and stained with FITC-α-Granzyme B, APC-α-IFNγ and PE-α-TNFα. In general, to gate the cytokine or granule producing cells, T cells without stimulation or stained with isotype control antibody were used as negative controls. This gating strategy is applicable for most of the flow cytometric analyses. To detect the MDSCs (myeloid-derived suppressor cells) in the tumour, the percoll isolated leukocyte were stained with α-CD45, α-CD11b and α-Ly6G (Gr1), the CD45^+ population was gated, after which the MDSC population (CD11b^+ Gr1^+) in CD45^+ were gated.
as §1

SMILES	cytolytic granule and cytokine productions of CD8+ T cells (CD8+ T cells)	cytotoxicity of CD8+ T cells (OT-I CTLs)	further results
CC(C)c1cc(C(C)C)c(CC(=O)NS(=O)(=O)Oc2c(C(C)C)cccc2C(C)C)c(C(C)C)c1 [avasimibe, [2,6-di(propan-2-yl)phenyl] N-[2-[2,4,6-tri(propan-2-yl)phenyl]acetyl]sulfamate]	–	–	tolerability in adult human subjects [1]: well tolerated; effector function of mouse CD8+ T cells ex vivo (CTL cytotoxicity, LDH assay) (OT-I CTLs; OT-I CTLs pretreated for 6 h, then incubated with OVA257-264 pulsed EL-4 cells for 4 h): enhance; antitumor effect in Lewis lung carcinoma (tumour multiplicity and survival) [2]: good antitumor effect; cytokine production of human CD8+ T cells (human CD8+ T cells): enhanced; survival time (B16F10 cells): prolonged; tumour growth (B16F10 cells): inhibited
CCN(CC)CCO[C@H]1CC[C@@]2(C)C(=CC[C@@H]3[C@@H]2CC[C@]2(C)C(=O)CC[C@@H]32)C1 [U18666A]	significantly decreased	–	–
CCCCCCCC[C@H](SCCCCCC)C(=O)Nc1c(SC)cc(C)nc1SC [CP-113,818, (S)-N-(2,4-Bis(methylthio)-6-methylpyridin-3-yl)-2-(hexylthio)decanoic acid amide]	augmented	augmented	–
CC[C@H](C)C(=O)O[C@H]1C[C@@H](C)C=C2C=C[C@H](C)[C@H](CC[C@@H]3C[C@@H](O)CC(=O)O3)[C@H]21 [Lovastatin]	significantly decreased	–	–
CSc1cc(C)nc(SC)c1NC(=O)CN1CCN(CCSc2nc3ccccc3[nH]2)CC1 [K604, 2-[4-[2-(benzimidazol-2-ylthio)ethyl]piperazin-1yl]-N-[2,4-bis(methylthio)-6-methyl-3-pyridyl]acetamide]	augmented	augmented	–
